Source: paper PMC10403511, “DNA-encoded chemical libraries yield non-covalent and non-peptidic SARS-CoV-2 main protease inhibitors” (Communications Chemistry, 2023)
“Also recorded” adds a separate entry of the source. Where two headings read alike, the source gives them in different places.

Legend:
SARS-CoV-2 M^pro = target: T1, SARS-CoV-2 M^pro (Severe acute respiratory syndrome coronavirus 2, UniProt P0DTD1); test: M^pro enzyme inhibition assay, proteolytic cleavage of fluorescent peptide reporter, Ki by Morrison equation; assay type: biochemical
T1 construct: the gene for M^pro (ORF1ab residues 3264 to 3569, GenBank code: MN908947.3); Sumo fusion with M^pro cleavage site (SAVLQ↓SGFRK) (N, cleaved yes); 6xHis-tag behind PreScission site (SGVTFQ↓GP) (C); made in house; host or cells: E. coli BL21(DE3)
Excerpt: Hydrolysis of the fluorescent peptide was monitored at an emission wavelength of 460 nm with an excitation wavelength of 360 nm using a TECAN M200 plate reader. Initial hydrolysis rates of fluorescent peptide were plotted as a function of compound concentrations, and Ki values were obtained by fitting the data into the Morrison equation[32] with SE from triplicates.
inhibitors. […] The remaining activities (red dots) of Mpro towards fluorescent
peptide we re plotted as a function of compound concentrations and Ki values wa s calculated by fitting the da ta int o Morrison equation wit h standard error f romS6 […]

cathepsin B = target: T2, cathepsin B (Homo sapiens, UniProt P07858); test: Human protease off-target assay, commercial kit; assay type: biochemical; conditions: 10 µM compound
T2 construct: purchased BPS Bioscience 79590
Experimental: (§1) These assays were done exactly as we described earlier. In brief, commercial kits were used for all four human proteases as follows: Cathepsin B (BPS Bioscience, #79590), Renin (BPS Bioscience, #80211), Thrombin (Sigma-Aldrich, #MAK243), and MMP-1 (Biovision, #K794-100). All assays were run in kinetic mode and at RT, except MMP-1, which was run at 37 °C. Positive controls were used for all assays, i.e., E64 for Cathepsin B, Aliskiren for Renin, CDD-1472 for Thrombin, and GM 6001 for MMP-1. Activities were obtained from linear initial progress curves, and fractional activities were calculated from reactions with no inhibitors[17],[19],[34].
(§2) Supplementary Figure 4. Potential off-target inhibition of major proteases, i.e. thrombin (a serine protease), cathepsin B (a cysteine protease like Mpro), renin (an
(§3) control inhibitors as indicated. S9 […]

[1] = target: T3, matrix metallopeptidase-1 (MMP-1) (Homo sapiens, UniProt P03956); test: Human protease off-target assay, commercial kit; assay type: biochemical; conditions: 10 µM compound, 37 °C
T3 construct: purchased Biovision K794-100
T3 sequence (P03956 100-469): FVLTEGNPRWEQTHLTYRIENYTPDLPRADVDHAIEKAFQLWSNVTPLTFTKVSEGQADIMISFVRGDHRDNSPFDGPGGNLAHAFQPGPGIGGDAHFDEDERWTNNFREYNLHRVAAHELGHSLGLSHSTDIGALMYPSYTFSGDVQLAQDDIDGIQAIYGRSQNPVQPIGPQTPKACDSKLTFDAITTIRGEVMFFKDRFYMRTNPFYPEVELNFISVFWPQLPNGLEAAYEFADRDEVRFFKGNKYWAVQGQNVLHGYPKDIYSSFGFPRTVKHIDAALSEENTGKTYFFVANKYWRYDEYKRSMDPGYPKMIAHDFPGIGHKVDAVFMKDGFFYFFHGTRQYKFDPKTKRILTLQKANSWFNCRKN
Experimental: as §1, §2, §3

renin = target: T4, renin (Homo sapiens, UniProt P00797); test: Human protease off-target assay, commercial kit; assay type: biochemical; conditions: 11.1 µM compound
T4 construct: purchased BPS Bioscience 80211
T4 sequence (P00797 67-406): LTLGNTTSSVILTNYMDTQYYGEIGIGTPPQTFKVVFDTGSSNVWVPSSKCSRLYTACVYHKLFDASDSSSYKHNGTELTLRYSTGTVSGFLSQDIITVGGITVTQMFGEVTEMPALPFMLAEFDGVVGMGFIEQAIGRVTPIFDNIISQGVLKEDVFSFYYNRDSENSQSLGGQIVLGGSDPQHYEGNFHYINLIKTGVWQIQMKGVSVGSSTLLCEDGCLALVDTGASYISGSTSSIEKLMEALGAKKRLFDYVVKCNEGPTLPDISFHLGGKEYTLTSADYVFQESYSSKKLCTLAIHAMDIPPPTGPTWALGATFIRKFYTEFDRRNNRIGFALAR
Experimental: as §1, §2, §3

thrombin = target: T5, thrombin (Homo sapiens, UniProt P00734); test: Human protease off-target assay, commercial kit; assay type: biochemical; conditions: 10 µM compound
T5 construct: purchased Sigma-Aldrich MAK243
Experimental: as §1, §2, §3

[2] = assay type: in vitro ADME, human; conditions: human, plasma, 2 h, 10 μM
Experimental: (§4) At time points of 0, 30, 60, and 120 min, 15 μL of the samples were taken out, and the reactions were terminated by adding 75 μL of ice-cold methanol. The reaction mixtures were then vortexed for 30 s and centrifuged at 15,000 rcf for 15 min. […] The percentage of test compound remaining at the individual time points was normalized by the 0-min.
(§5) 10 µM in duplicate (n=2) at 37 °C. The reactions were terminated at time points of 0, 30, 60 and 120 min by adding ice-cold methanol. Following centrifugation, the supernatant was analyzed using UHPLC-Q E xa ct ive Orbitrap MS. The percentage of test compound remaining at the individual time points relative to the 0 min sample was determined S12

[3] = assay type: in vitro ADME, mouse; conditions: mouse, plasma, 2 h, 10 μM
Experimental: as §4, §5

in vivo = conditions: 50 mg/kg; for half-life: plasma
Experimental: The whole blood samples were centrifuged at rcf 2000 for 5 min for the plasma separation of plasma. The plasma samples were stored at −80 °C before analysis. All the samples were analyzed with a Q Exactive orbitrap MS coupled with UHPLC (Thermo Fisher Scientific, San Jose, CA). LC-Q Exactive MS was operated in the same parameters used in the cell uptake assay above. The concentration of these compounds in plasma was quantified using individual calibration curves.
PK parameters such as half-time (T1/2), area under the plasma concentration–time curve during the period of observation (AUC0–t), area under the plasma concentration–time curve from zero to infinity (AUC0–∞), clearance normalized by the bioavailability (CL/F), and the mean residence time (MRT) were calculated by WinNonlin software (Certara, Princeton, NJ) by noncompartmental analysis. The plasma concentration–time curves were plotted in Prism 7 (GraphPad, San Diego, CA) as mean ± S.D.
Mouse PK of CDD compounds, 50 mg/kg
samples we re collected at 0, 5, 10, 15, 30 m in , 1, 2, 4, 6 and 8 h af ter dosing. P la sm a samples we re separated, prepared and analyzed wit h LC-MS. The compound
± SD (n=4). Tmax, time to rea ch the m a ximum pla sma concentration. Cm ax, maximum p las m a concentration. T1/2, half-lif e . AUC, area under the cu rve . CL, clea ran ce . F,
bioavailability. M R T, mean residence time.

HepG2 cells [4] = test system: HepG2 cells
HepG2 cells [5] = test: cells; conditions: Homo sapiens, HepG2, 24 h, read-out: IC50 (HepG2 cell viability)
in vitro = conditions: human
[6] = 25 nM Mpro with authentic termini (no His-tag), standard error from triplicates, Inactive: less than 50% inhibition with 25 µM compound, read-out: Mpro Ki
[7] = Fig. 2, Suppl. Fig. 1, construct not given, Inactive: inhibited M^pro activity by less than 90% with 25 μM, read-out: Ki
[8] = 25 nM Mpro with authentic termini (no His-tag), standard error from triplicates, Inactive: less than 50% inhibition with 25 µM compound
[9] = 25 nM Mpro-6-His, standard error from triplicates, Inactive: less than 50% inhibition with 25 µM compound in initial screening
[10] = Fig. 2, Suppl. Fig. 1, construct not given, Inactive: inhibited M^pro activity by less than 90% with 25 μM

**Q.** For `CNC(=O)[C@H]1C[C@H](n2c(-c3cncc4ccccc34)nc3cccc(C(=O)N[C@@H](C)c4ccc(C(F)(F)F)cc4)c32)C1` [CDD-1829], which Ki (SARS-CoV-2 M^pro; [6]) is on record?
**A.** 48 ± 5 nM

**Q.** And the Ki (SARS-CoV-2 M^pro; [7])?
**A.** 46 nM

**Q.** For `CNC(=O)CCCn1c(-c2cncc3ccccc23)nc2cccc(C(=O)N[C@@H](C)c3ccc4ccccc4c3)c21` [CDD-1845], which “inhibition of enzymatic activity” value (cathepsin B) is on record?
**A.** None of these inhibitors blocked the enzymatic activity

**Q.** What about the “inhibition of enzymatic activity” value [1] of the same compound?
**A.** None of these inhibitors blocked the enzymatic activity

**Q.** What about the “inhibition of enzymatic activity” value (renin) of the same compound?
**A.** None of these inhibitors blocked the enzymatic activity

**Q.** And the “inhibition of enzymatic activity” value (thrombin)?
**A.** None of these inhibitors blocked the enzymatic activity

**Q.** What about the “compound remaining in plasma” value [2] of the same compound?
**A.** 80%

**Q.** And the “compound remaining in plasma” value [3]?
**A.** 80%

**Q.** And the AUC(0-inf) (in vivo; male, mouse, in vivo, po)?
**A.** 14.9 ± 7.85 µM·h

**Q.** And the AUC(0-t) (in vivo; male, mouse, in vivo, po)?
**A.** 14.9 ± 7.79 µM·h

**Q.** And the Cmax (in vivo; male, mouse, in vivo, po)?
**A.** 8.93 ± 4.55 µM

**Q.** What about the MRT inf (in vivo; male, mouse, in vivo, po) of the same compound?
**A.** 1.25 ± 0.02 h

**Q.** And the MRT last (in vivo; male, mouse, in vivo, po)?
**A.** 1.22 ± 0.03 h

**Q.** And the Tmax (in vivo; male, mouse, in vivo, po)?
**A.** 0.33 ± 0.14 h

**Q.** What about the half-life (in vivo; male, mouse, oral) of the same compound?
**A.** 1.1 ± 0.3 h

**Q.** And the half-life (in vivo; male, mouse, po)?
**A.** 1.14 ± 0.32 h

**Q.** What about the CL/F (in vivo; mice, per oral gavage (po.), n=4, mean ± SD) of the same compound?
**A.** 4.02 ± 1.98 mg/ ( hr*µmol/L)/kg

**Q.** And the cytotoxicity (HepG2 cells [4])?
**A.** no obvious cytotoxicity

**Q.** What about the IC50 (HepG2 cells [5]) of the same compound?
**A.** > 100000 nM

**Q.** What about the viability at 24 h, 100 µM (in vitro) of the same compound?
**A.** > 80%

**Q.** With `CCC[C@H](NC(=O)c1cccc2nc(-c3cncc4ccccc34)n([C@H]3C[C@H](C(=O)NC)C3)c12)c1ccccc1` [CDD-1843] as the compound, how does the “Mpro Ki” value (SARS-CoV-2 M^pro) read?
**A.** Inactive

**Q.** What about the “Mpro-His Ki” value (SARS-CoV-2 M^pro) of the same compound?
**A.** Inactive

**Q.** With `CCC[C@H](NC(=O)c1cccc2nc(-c3cncc4ccccc34)n([C@H]3CC[C@H](C(=O)NC)C3)c12)c1ccc(C(F)(F)F)cc1` [CDD-1790] as the compound, how does the Ki (SARS-CoV-2 M^pro; read-out: Ki) read?
**A.** 620 nM

**Q.** And the Ki (SARS-CoV-2 M^pro; read-out: Mpro Ki)?
**A.** 664 ± 66 nM

**Q.** Which “Mpro Ki” value (SARS-CoV-2 M^pro; [8]) does the source give for `CCC[C@H](NC(=O)c1cccc2nc(-c3cccnc3)n([C@H]3C[C@H](C(=O)NC)C3)c12)c1ccc(C(F)(F)F)cc1` [CDD-1831] here?
**A.** Inactive

**Q.** And the “Mpro-His Ki” value (SARS-CoV-2 M^pro; [9])?
**A.** Inactive

**Q.** And the Ki (SARS-CoV-2 M^pro; [10])?
**A.** total loss of activity; also recorded: inactive or exhibit greatly decreased potency

**Q.** Which Ki (SARS-CoV-2 M^pro; [6]) does the source give for `CCC[C@H](NC(=O)c1cccc2nc(-c3cncc4ccccc34)n([C@H]3C[C@H](C(=O)NC)C3)c12)c1cccc(C(F)(F)F)c1` [CDD-1795] here?
**A.** 35 ± 5 nM

**Q.** What about the Ki (SARS-CoV-2 M^pro; [7]) of the same compound?
**A.** 29 nM

**Q.** What about the “decrease of activity compared to CDD-1733” value (SARS-CoV-2 M^pro; from Ki values) of the same compound?
**A.** approximately 2 fold

**Q.** With `CCC[C@H](NC(=O)c1cccc2nc(-c3cncc4ccccc34)n([C@H]3C[C@H](C(=O)NC)C3)c12)c1ccc(OC(F)F)cc1` [CDD-1780] as the compound, how does the Ki (SARS-CoV-2 M^pro; [6]) read?
**A.** 16 ± 2 nM

**Q.** What about the Ki (SARS-CoV-2 M^pro; [7]) of the same compound?
**A.** 14 nM

**Q.** With `CNC(=O)CCCn1c(-c2cncc3ccccc23)nc2cccc(C(=O)NCc3ccc4ccccc4c3)c21` [CDD-1925] as the compound, how does the Ki (SARS-CoV-2 M^pro; read-out: Ki) read?
**A.** 51 nM

**Q.** And the Ki (SARS-CoV-2 M^pro; read-out: Mpro Ki)?
**A.** 42 ± 5 nM

**Q.** With `CCC[C@H](NC(=O)c1cccc2nc(-c3cncc4ccccc34)n(C3CCNCC3)c12)c1ccc(C(F)(F)F)cc1` [CDD-1818] as the compound, how does the Ki (SARS-CoV-2 M^pro; read-out: Ki) read?
**A.** 1470 nM

**Q.** And the Ki (SARS-CoV-2 M^pro; read-out: Mpro Ki)?
**A.** 1710 ± 128 nM

**Q.** Which “Mpro Ki” value (SARS-CoV-2 M^pro; [8]) does the source give for `CNC(=O)[C@H]1C[C@H](n2c(-c3cncc4ccccc34)nc3cccc(C(=O)NC(C)C)c32)C1` [CDD-1842] here?
**A.** Inactive

**Q.** And the “Mpro-His Ki” value (SARS-CoV-2 M^pro; [9])?
**A.** Inactive

**Q.** And the Ki (SARS-CoV-2 M^pro; [10])?
**A.** completely inactive
